Experimental data: the NIST ThermoML archive (doi:10.1016/j.jct.2008.06.016)

Test: molar heat capacity at constant pressure
Conditions: 101.33 kPa, Crystal, Small sample (50 mg) DSC

NC(=O)c1ccccc1O [2-hydroxybenzamide]
Conditions | molar heat capacity at constant pressure [J/K/mol]
280.4 K | 124.1
285.4 K | 126.3
290.4 K | 128.7
295.4 K | 130.9
300.4 K | 133.1
305.4 K | 135.6
310.4 K | 138
315.4 K | 140.5
320.4 K | 142.9
325.4 K | 145.5
330.4 K | 148.1
335.4 K | 150.5
340.4 K | 153.1
345.4 K | 155.6
350.4 K | 158.2
355.4 K | 160.6
360.4 K | 163.3
365.4 K | 165.6
370.4 K | 168.1
375.4 K | 170.3
380.4 K | 172.9
385.4 K | 175.4
390.4 K | 177.9
395.4 K | 180.6

O=C(O)c1cccc(O)c1 [3-hydroxybenzoic acid]
Conditions | molar heat capacity at constant pressure [J/K/mol]
280.4 K | 134.6
285.5 K | 136.8
290.5 K | 138.9
295.4 K | 141.2
300.4 K | 143.5
305.4 K | 145.8
310.4 K | 147.9
315.4 K | 150.2
320.4 K | 152.7
325.5 K | 155
330.5 K | 157.4
335.5 K | 159.7
340.5 K | 162.2
345.5 K | 164.5
350.4 K | 166.9
355.4 K | 169.1
360.4 K | 171.3
365.4 K | 173.7
370.4 K | 175.9
375.4 K | 177.9
380.4 K | 180.8
385.4 K | 183.8
390.5 K | 186.3
395.5 K | 188.7
400.5 K | 190.6
405.5 K | 192.6
410.5 K | 194.6
415.5 K | 196.6
420.5 K | 198.3
425.5 K | 200.3
430.5 K | 202.5
435.5 K | 205
440.5 K | 207.5
445.5 K | 209.9
450.5 K | 212.1
455.5 K | 214.8
460.4 K | 218.8

O=C(O)c1ccccc1O [2-hydroxybenzoic acid]
Conditions | molar heat capacity at constant pressure [J/K/mol]
280.4 K | 128.5
285.5 K | 130
290.5 K | 131.6
295.4 K | 133.5
300.4 K | 135.4
305.4 K | 137.4
310.4 K | 139.4
315.4 K | 141.4
320.4 K | 143.5
325.4 K | 145.5
330.4 K | 147.6
335.4 K | 149.8
340.4 K | 151.8
345.4 K | 154.1
350.4 K | 156.2
355.4 K | 158.2
360.4 K | 160.3
365.4 K | 162.3
370.4 K | 164.2
375.4 K | 165.9
380.4 K | 168
385.4 K | 170.1
390.4 K | 172.1
395.5 K | 173.8
400.5 K | 175.6
405.5 K | 177.5

O=C(O)c1ccc(O)cc1 [4-hydroxybenzoic acid]
Conditions | molar heat capacity at constant pressure [J/K/mol]
280.8 K | 138.9
285.8 K | 141.3
290.8 K | 143.5
295.8 K | 145.7
300.7 K | 148
305.8 K | 149.7
310.8 K | 151.8
315.8 K | 154.6
320.8 K | 156.4
325.8 K | 158.7
330.8 K | 161.4
335.8 K | 163.8
340.8 K | 166.3
345.8 K | 168.6
350.8 K | 171.1
355.8 K | 173.4
360.8 K | 175.5
365.7 K | 177.8
370.7 K | 180
375.7 K | 182
380.8 K | 184.4
385.8 K | 186.7
390.8 K | 188.9
395.8 K | 191
400.8 K | 193.1
405.8 K | 195.1
410.8 K | 197
415.8 K | 198.7
420.8 K | 200.4
425.8 K | 202.2
430.8 K | 204.5
435.8 K | 207.1
440.8 K | 209.5
445.8 K | 211.6
450.8 K | 213.8
455.8 K | 215.9
460.7 K | 218.2
